# Source: patent US12558354B2, “Tumor necrosis factor alpha (TNF-alpha) small molecule inhibitor” (AJOU UNIVERSITY INDUSTRY-ACADEMIC COOPERATION FOUNDATION, priority 2019, dated 2026)
# “Also recorded” adds a separate entry of the source.
# How the values were obtained:
# TNF-α = TNF-α (Homo sapiens, UniProt P01375); details: target TNF-α, literature; cited from earlier work
# [1] = test system: murine fibrosarcoma cell line L929; experiment: Cell viability (MTT) assay in L929 cells; assay type: cell-based; details: L929, up to 200 μM, 24 hours
# Method: (§1) FIG. 8A is a graph showing the effects of TIM1 and a solvent thereof, DMSO, on the viability of human dermal fibroblasts, in which cells (10^4/well) were treated with DMSO at 3 different concentrations (0.5, 1, and 2%) and TIM1 at 8 different concentrations (1, 3.125, 6.25, 12.5, 25, 50, 100, and 200 μM) for 24 hours, and the cell viability was monitored by an MTT assay. FIG. 8B is a graph showing the effect of TIM1 on the viability of a mouse fibrosarcoma cell line [L929 (1.5×10^4/well)] under the same conditions as in FIG. 8A. All experiments were independently performed 4 times, and mean±SEM of the independent experiments was calculated using a two-tailed paired Student's t-test (*P<0.05).
# In order to measure cell viability, a colorimetric […] (MTT) assay (Sigma-Aldrich Co.) was performed. HDFs were seeded at a density of 10^4/well in 96-well plates (BD Biosciences, San Jose, CA, USA), grown overnight, and then treated with a test compound at various concentrations for 24 hours. The next day, the medium was replaced with a medium (100 μl/well) containing a 10% MTT solution, followed by incubated at 37° C. for 3 hours. […] Thereafter, the plates were read at a wavelength of 540 nm using a microplate spectrophotometer system (Molecular Devices, Silicon Valley, California).
# [2] = test system: human dermal fibroblasts (HDFs); experiment: Cell viability (MTT) assay in human dermal fibroblasts; assay type: cell-based; details: 24 hours
# Method: as §1
# In order to measure cell viability, a colorimetric […] (MTT) assay (Sigma-Aldrich Co.) was performed. HDFs were seeded at a density of 10^4/well in 96-well plates (BD Biosciences, San Jose, CA, USA), grown overnight, and then treated with a test compound at various concentrations for 24 hours. The next day, the medium was replaced with a medium (100 μl/well) containing a 10% MTT solution, followed by incubated at 37° C. for 3 hours. This solution was replaced with DMSO (100 μl/well), and the plates were incubated at room temperature for 30 minutes. Thereafter, the plates were read at a wavelength of 540 nm using a microplate spectrophotometer system (Molecular Devices, Silicon Valley, California).
# [3] = target: T1, recombinant human TNF-α (rhTNF-α) (Homo sapiens, UniProt P01375); experiment: Cell death attenuation assay, act-D-sensitized HDFs with rhTNF-α; assay type: cell-based
# T1 construct: purchased Miltenyi Biotec
# Method: (§2) HDFs (10^4/well) and L929 cell lines (1.5×10^4/well) were seeded in 96-well plates and grown overnight under appropriate conditions. The next day, HDFs and L929 cells were pretreated with 1 μg/ml act-D and 0.1 μg/ml act-D, respectively, followed by incubated for 30 minutes. Thereafter, a 1-hour-preincubated mixture of 10 ng/ml rhTNFα with test compounds or 1 ng/ml rmTNFα with test compounds, was applied to HDFs and L929 cells, respectively. The cells were incubated for 24 hours post-treatment, and survival was measured by the MTT assay. Cell viability was calculated with reference to the no-treatment control group. The obtained values were normalized with respect to the act-D treatment group and then used to calculate death attenuation (%) rate using the following equation: […]
# [4] = target: T2, recombinant mouse TNF-α (rmTNF-α) (Mus musculus, UniProt P06804); experiment: Cell death attenuation assay, act-D-sensitized L929 cells with rmTNF-α; assay type: cell-based
# T2 construct: purchased Miltenyi Biotec
# T2 sequence (P06804 80-235 limits assumed): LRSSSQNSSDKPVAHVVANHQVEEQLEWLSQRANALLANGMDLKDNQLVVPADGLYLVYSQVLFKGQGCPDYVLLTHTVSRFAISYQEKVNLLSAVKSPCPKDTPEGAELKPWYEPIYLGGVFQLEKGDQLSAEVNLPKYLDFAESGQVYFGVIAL
# Method: as §2
# [5] = target: T3, recombinant mouse TNF-α homotrimer (Mus musculus, UniProt P06804); experiment: Dissociation of TNF-α trimerization assembly (cross-linking, Western blot), mouse; assay type: biochemical; details: cross-linked with BS3, Western blot
# T3 construct: purchased Miltenyi Biotec
# T3 sequence (P06804 80-235 limits assumed): T2 sequence (P06804 80-235 limits assumed)
# Method: (§3) Inhibitors were incubated with 100 ng of recombinant TNF-α at 37° C. for 1 hour and then cross-linked with 4.8 mM BS3 (Thermo Fisher Scientific, Inc.) at room temperature for 30 minutes. Then, a 1/10 volume of 1 M Tris-HCl (pH 7.5) was added to stop the reaction. Thereafter, samples were separated by SDS-PAGE, followed by Western blotting with anti-TNF-α antibody (Cell Signaling Technology Inc.).
# [6] = test system: TNF-α-dependent signaling pathways (NF-κB, MAPKs, caspases 3 and 8); experiment: Western blot of TNF-α-dependent signaling pathways in L929 cells; assay type: cell-based, mouse
# Method: Total protein was extracted from the treated cells using an M-PER mammalian protein extraction reagent (Thermo Fisher Scientific, Inc.). The cell pellets were dissolved in a mixture of M-PER with protease and phosphatase inhibitor cocktail (Thermo Fisher Scientific, Inc.) at 4° C. for 1 minute, and the lysate thus obtained was centrifuged at 16,000×g and 4° C. for 10 minutes. The supernatant containing the protein was collected in a separate Eppendorf tube, and a BCA assay (Sigma-Aldrich) was performed for protein quantification. 20 Hg of a protein sample was placed in a 10-12% polyacrylamide gel (containing SDS), and the separated protein was transferred to a nitrocellulose membrane (HYBOND ECL™; Amersham Pharmacia Biotech Inc, Piscataway, New Jersey) of a mini-PROTEAN tetra cell and mini trans-blot electrophoretic transfer cell system (Bio-Rad Laboratories). Membrane blocking was performed with 5% nonfat dried milk for 1 hour. The membrane was subjected to immunoblotting through gentle shaking overnight at a temperature of 4° C. with certain primary antibodies, i.e. antibodies to (phospho-)p-p65, p-JNK, JNK, p-ERK, ERK, cleaved caspase 3 (Cell Signaling Technology Inc., Danvers, MA, USA), p-p38, caspase 8, and β-actin (Santa Cruz Biotechnology Inc., Dallas, TX, USA). The next day, after rigorous washing with PBST, the membrane was incubated with peroxidase-conjugated anti-mouse or anti-rabbit IgG antibodies at room temperature for 2 hours. Protein was detected using a SuperSignal West Pico ECL solution (Thermo Fisher Scientific, Inc.) and visualized with a CHEMIDOC™ Touch Imaging System (Bio-Rad Laboratories).
# [7] = target: T1, recombinant human TNF-α (rhTNF-α); experiment: TNF-α-mediated hIL-6 secretion in HDFs (ELISA); assay type: cell-based; details: 24 hours
# Method: (§4) HDFs were seeded at a density of 10^4/well in a 96-well plate (BD Biosciences) and grown overnight. The cells were treated for 24 hours with a 1-hour-pre-incubated mixture of rhTNF-α and test compounds. IL-8 secretion was assessed by a human IL-8 uncoated ELISA kit (eBioscience, Inc., San Diego, CA, USA), and IL-6 secretion level was assessed by a human IL-6 ELISA MAX™ Deluxe kit (BioLegend, San Diego, CA, USA). The microtiter plates were then analyzed at an appropriate wavelength using a microplate spectrophotometer system (Molecular Devices, Silicon Valley, California).
# [8] = target: T1, recombinant human TNF-α (rhTNF-α); experiment: TNF-α-mediated hIL-8 secretion in HDFs (ELISA); assay type: cell-based; details: 24 hours
# Method: as §4
# [9] = target: T4, recombinant human TNF-α homotrimer (Homo sapiens, UniProt P01375); experiment: Dissociation of TNF-α trimerization assembly (cross-linking, Western blot), human; assay type: biochemical; details: cross-linked with BS3, Western blot
# T4 construct: purchased Miltenyi Biotec
# Method: as §3
# TNFRI = target: T5, TNFRI (Homo sapiens, UniProt P19438); details: target TNFRI, literature; cited from earlier work
# T5 sequence (P19438 30-455): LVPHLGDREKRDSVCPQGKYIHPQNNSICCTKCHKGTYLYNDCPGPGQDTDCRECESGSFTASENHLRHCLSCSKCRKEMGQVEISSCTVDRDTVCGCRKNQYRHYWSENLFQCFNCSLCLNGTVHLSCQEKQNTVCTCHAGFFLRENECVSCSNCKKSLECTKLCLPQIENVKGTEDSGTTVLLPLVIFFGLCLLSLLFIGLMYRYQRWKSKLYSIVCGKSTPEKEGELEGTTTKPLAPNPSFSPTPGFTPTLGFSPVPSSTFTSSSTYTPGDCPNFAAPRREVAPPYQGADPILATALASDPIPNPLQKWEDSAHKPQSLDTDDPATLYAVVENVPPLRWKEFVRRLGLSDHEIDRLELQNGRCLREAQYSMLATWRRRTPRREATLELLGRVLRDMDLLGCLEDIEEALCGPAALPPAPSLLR
# [10] = L929, 20 μM, rmTNF-α 1 ng/ml, 5-30 minutes
# [11] = HDFs, rhTNF-α 1 ng/ml pre-incubated 1 hour
# T1 sequence (P01375 77-233 limits assumed): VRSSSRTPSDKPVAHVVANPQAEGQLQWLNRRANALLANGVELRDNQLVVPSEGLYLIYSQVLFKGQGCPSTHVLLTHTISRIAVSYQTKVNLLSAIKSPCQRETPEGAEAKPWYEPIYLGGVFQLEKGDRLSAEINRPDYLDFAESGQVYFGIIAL
# Sequence of TNF-α (P01375 77-233 limits assumed, species assumed): as the sequence (P01375 77-233 limits assumed) above
# T4 sequence (P01375 77-233 limits assumed): as above
compound,measurement,setting,value
O=C1Sc2c(S(=O)(=O)Nc3ccc(O)cc3)cc(S(=O)(=O)Nc3ccc(O)cc3)c3cccc1c23 [AP-906/41640035],IC50,TNF-α,14 µM
"C#Cc1cccc(Nc2nc(-c3cc(C)n(NC(=O)c4nn(C)c(=O)c5ccccc45)c3C)cs2)c1 [TIM1, N-(3-{2-[(3-ethynylphenyl)amino]-1,3-thiazol-4-yl}-2,5-dimethylpyrrol-1-yl)-3-methyl-4-oxophthalazine-1-carboxamide]",lethality at increasing concentrations,[1],no lethality
same,lethality / cytotoxicity at increasing concentrations,"[2]; HDF, up to 200 μM",no lethality; also recorded: does not show cytotoxicity up to 200 μM
same,"cytotoxicity (cell viability, MTT assay)",[2]; HDFs,no cytotoxicity up to a concentration of 50 μM; also recorded: did not exhibit cytotoxicity even at high concentrations (up to 100 μM)
same,IC50,[3],26.2 µM
same,attenuation of TNF-α-induced apoptosis,"[3]; act-D-sensitized HDFs, rhTNF-α 10 ng/ml, 1-100 μM",Significant attenuation
same,IC50,[4],24.9 µM
same,inhibition of rmTNF-α-mediated proapoptotic pathway / cell death,"[4]; act-D-sensitized L929, rmTNF-α 1 ng/ml, 1-100 μM",inhibited the rmTNF-α-mediated proapoptotic pathway in L929 cells in a concentration-dependent manner
same,"formation of functional homotrimers, rmTNF-α",[5],inhibited the formation of functional homotrimers
same,TNF-α-mediated phosphorylation of the p65 subunit (NF-κB),[6]; [10],attenuated
same,"phosphorylation of MAPKs (p38 MAPK, JNK, ERK)",[6]; [10],inhibited
same,formation of cleaved active caspases 3 and 8,"[6]; L929, TNF-α stimulation",blocked
same,inhibition of TNF-α-mediated hIL-6 secretion,"[7]; HDFs, 1, 10, 50 and 100 μM",inhibited TNF-α-mediated secretion
same,IC50,[7]; [11],6.3 µM
same,inhibition of TNF-α-mediated hIL-8 secretion,"[8]; HDFs, 1, 10, 50 and 100 μM",inhibited TNF-α-mediated secretion
same,IC50,[8]; [11],16.7 µM
same,"formation of functional homotrimers, rhTNF-α",[9],inhibited the formation of functional homotrimers
Physcion-8-O-β-D-monoglucoside,Kd,TNFRI,376 nM
